Each structure is given as a SMILES string.

This test relates to asymmetric di-methyl PABP1 in RKO cells. The experiment in a line: RKO methylation assay, In Cell Western (ICW) for asymmetric di-methyl PABP1. Format: cell-based. The following applies: Homo sapiens, RKO, Cellular potencies, ICW PABP1me2a. The gist of the method: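 RKO cells treated with compound for 48 h at 37 °C, then fixed, permeabilized and immunostained for asymmetric di-methyl PABP1, with DRAQ5 as DNA stain. Infrared 700/800 nm signal ratio normalized to DMSO and 20 μM reference-compound controls; IC50 from triplicate wells.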
With `CCOC(=O)N1CC[C@H](Nc2nc(-c3cc(OC[C@H](O)CNC)ccc3Cl)nc(-c3c(C)noc3C)c2Cl)C1` [Example 151-3], the IC50 is less than 5 µM.
Regarding `CNC[C@@H](O)COc1ccc(Cl)c(-c2nc(-c3c(C)noc3C)c(C)c(N3CCOC3=O)n2)c1` [Example 187-3], the IC50 fell in the range of 10 to 20 µM.
Next, `CNCC(O)COc1ccc(C)c(-c2nc(NC3CCOC(C)C3)c(C)c(-c3c(C)noc3C)n2)c1` (stereo not drawn) [Example 124-3]: less than 5 µM; `CNC[C@@H](O)COc1ccc(F)c(-c2nc(-c3c(C)noc3C)cc(N3CC4(CCOCC4)C3)n2)c1` [Example 277-3]: less than 5 µM.
Consider `CCOC(=O)N1CCC(Nc2nc(-c3cccc(OCC(O)CNC)c3)nc(-c3c(C)noc3C)c2C)C1` (stereo not drawn) [Example 196-1a], for which the IC50 is less than 5 µM.
With `CCS(=O)(=O)N1CCN(c2nc(-c3cccc(OCC(O)CNC)c3)nc(NC3CCOC3)c2C)CC1(C)C` (stereo not drawn) [Example 448-1a], the IC50 was less than 5 µM.
`CNCC(O)COc1cccc(-c2nc(-c3c(C)noc3C)c(C)c(N3CCC4(CC3)CN(S(C)(=O)=O)C4)n2)c1` (stereo not drawn) [Example 179-1a] yielded an IC50 of less than 5 µM.
In turn, `CCOC(=O)N1CCN(c2nc(-c3cccc(OCC(O)CNC)c3)nc(N[C@@H]3CCOC3)c2C)CC1` (stereo partly drawn) [Example 456-1a] returned an IC50 of less than 5 µM.
Regarding `CNCC(O)COc1cccc(-c2nc(N[C@@H]3CCOC3)c(C)c(N3CCC4(CC3)CNC(=O)C4)n2)c1` (stereo partly drawn) [Example 424-1a], the half-maximal inhibitory concentration (IC50) is 10 to 20 µM.
Regarding `CCOC(=O)N1CCOC[C@@H]1CNc1nc(-c2cccc(OC[C@H](O)CNC)c2)nc(-c2c(C)noc2C)c1C` [Example 277-1a], the IC50 was less than 5 µM.
With `CNCC(O)COc1cccc(-c2nc(NC3CCOC3)c(C)c(N3CC(N)CC(Cl)C3)n2)c1` (stereo not drawn) [Example 442-1a] the figure was 10 to 20 µM; with `CNC[C@@H](O)COc1cccc(-c2nc(-c3cn(S(C)(=O)=O)c4ncncc34)cc(N(C)C3CCOCC3)n2)c1` [Example 511-1a], 5 to 10 µM.
Next, `CNCC(O)COc1cccc(-c2nc(N[C@@H]3CCOC3)c(Cl)c(N3CCOCC3)n2)c1` (stereo partly drawn) [Example 376-1a]: 5 to 10 µM; `CNCC(O)COc1cccc(-c2nc(NCC3(N4CCC4)CCOCC3)c(C)c(-c3c(C)noc3C)n2)c1` (stereo not drawn) [Example 301-1a]: 5 to 10 µM.
The compound `CNCC(O)COc1cccc(-c2nc(N[C@@H]3CCOC3)c(C)c(N3CCC(N4CCOCC4)CC3)n2)c1` (stereo partly drawn) [Example 367-1a] yielded an IC50 of 5 to 10 µM.
For the compound `CNC[C@@H](O)COc1ccc(Cl)c(-c2nc(-c3c(C)noc3C)c(C)c(N3CCC4(CN(C(=O)OC)C4)C3)n2)c1` [Example 177-3], the IC50 was less than 5 µM.
For the compound `CNCC(O)COc1cccc(-c2nc(-c3c(C)noc3C)cc(N(C)c3cncnc3)n2)c1` (stereo not drawn) [Example 50-1a], the IC50 was less than 5 µM.
With `CCS(=O)(=O)N1CCOC[C@@H]1CNc1nc(-c2cccc(OCC(O)CNC)c2)nc(-c2c(C)nsc2C)c1C` (stereo partly drawn) [Example 71-3] the figure was 10 to 20 µM.
`CNCC(O)COc1cccc(-c2nc(NC3CCCN(CC(F)F)C3)c(C)c(-c3c(C)noc3C)n2)c1` (stereo not drawn) [Example 203-1a] returned an IC50 of less than 5 µM.
Compound `CNCC(O)COc1cccc(-c2nc(N[C@@H]3CCOC3)c(C)c(-c3c(C)noc3C)n2)c1` (stereo partly drawn) [Example 66-1a] registered an IC50 of less than 5 µM.
With `CNC[C@@H](O)COc1ccc(F)c(-c2nc(-c3c(C)noc3C)c(Cl)c(N3CC4(CCOCC4)C3)n2)c1` [Example 294-3] the figure was less than 5 µM; with `CNC[C@H](O)COc1ccc(F)c(-c2nc(NC3CCN(C(=O)OC)CC3)c(C)c(-c3c(C)noc3C)n2)c1` [Example 26-3], less than 5 µM.
In the case of `CNC[C@H](O)COc1ccc(Cl)c(-c2nc(NC3CCN(C(=O)OC)CC3)c(C)c(-c3c(C)noc3C)n2)c1` [Example 89-3], the IC50 is less than 5 µM.
`CNC[C@@H](O)COc1ccc(Cl)c(-c2nc(-c3c(C)noc3C)c(C)c(N3Cc4cnn(C)c4C3)n2)c1` [Example 140-3]: the IC50 was less than 5 µM.
Next, `CNCC(O)COc1cccc(-c2nc(-c3c(C)noc3C)cc(N3CCNC(C(F)(F)F)C3)n2)c1` (stereo not drawn) [Example 131-1a]: less than 5 µM.
As for `CCOC(=O)N1CCOC[C@@H]1CNc1nc(-c2cc(OCC(O)CNC)ccc2Cl)nc(-c2c(C)nsc2C)c1C` (stereo partly drawn) [Example 93-3], the IC50 is less than 5 µM.
Compound `CNC[C@@H](O)COc1ccc(Cl)c(-c2nc(-c3c(C)noc3C)c(C)c(N3CCc4nn(C)cc4C3)n2)c1` [Example 122-3] came in with an IC50 of less than 5 µM.
With `CNCC(O)COc1cccc(-c2nc(-c3c(C)noc3C)cc(N3CCN(C(=O)C4CC4)CC3)n2)c1` (stereo not drawn) [Example 133-1a] the figure was less than 5 µM; with `CNCC(O)COc1cccc(-c2nc(N3CCN(C)C(=O)C3)cc(N(C)C3CCOCC3)n2)c1` (stereo not drawn) [Example 549-1a], 10 to 20 µM; with `CNC[C@H](O)COc1ccc(Cl)c(-c2nc(N[C@H]3C[C@H](OC)C3)c(C)c(-c3c(C)noc3C)n2)c1` [Example 53-3], less than 5 µM.
Next, `CNCC(O)COc1cccc(-c2nc(OCC3CCN(CC(F)F)CC3)c(C)c(-c3c(C)noc3C)n2)c1` (stereo not drawn) [Example 288-1a]: less than 5 µM.
In turn, `CNCC(O)COc1cc(Cl)cc(-c2nc(-c3ccncc3)c(Br)c(N(C)C3CCOCC3)n2)c1` (stereo not drawn) [Example 611-1a] came in with an IC50 of 10 to 20 µM.
`CNCC(O)COc1cccc(-c2nc(-c3c(C)noc3C)c(C)c(N3CCO[C@@H](C)C3)n2)c1` (stereo partly drawn) [Example 209-1a]: the IC50 was in the range of 5 to 10 µM.
The compound `CCOC(=O)N1CCC[C@@H]1CNc1nc(-c2cc(OC[C@@H](O)CNC)ccc2Cl)nc(-c2c(C)noc2C)c1C` [Example 49-3] registered an IC50 of less than 5 µM.
As to `CNCC(O)COc1cccc(-c2nc(N[C@H]3CCC[C@@H](O)C3)c(C)c(-c3c(C)noc3C)n2)c1` (stereo partly drawn) [Example 10-3], the IC50 was less than 5 µM.
For `CNC[C@@H](O)COc1ccc(F)c(-c2nc(-c3c(C)noc3C)c(C)c(N3CC4(CCOCC4)C3)n2)c1` [Example 227-3], the IC50 is less than 5 µM.
Regarding `CNCC(O)COc1cccc(-c2nc(NC3CCOC3)c(C)c(-c3cn(C)nn3)n2)c1` (stereo not drawn) [Example 335-1a], the half-inhibitory concentration (IC50) fell in the range of 5 to 10 µM.
Compound `CNC[C@@H](O)COc1ccc(Cl)c(-c2nc(-c3c(C)noc3C)c(C)c(N3CCC4(CCN(C5CC5)C4)C3)n2)c1` (stereo partly drawn) [Example 138-3] returned an IC50 of less than 5 µM.
Compound `CNCC(O)COc1cccc(-c2nc(-c3c(C)noc3C)c(C)c(N3CCS(=O)(=O)CC3)n2)c1` (stereo not drawn) [Example 57-1a] yielded an IC50 of 10 to 20 µM.
Compound `CNC[C@H](O)COc1ccc(Cl)c(-c2nc(-c3c(C)noc3C)c(C)c(N(C)[C@H]3C[C@@](C)(OC)C3)n2)c1` [Example 95-3] registered an IC50 of less than 5 µM.
Turning to `CNCC(O)COc1cccc(-c2nc(-c3c(C)noc3C)cc(N3CCN(C(C)=O)C4(CC4)C3)n2)c1` (stereo not drawn) [Example 70-1a], the IC50 was less than 5 µM.
In the case of `CNCC(O)COc1cccc(-c2nc(NC3CCN(C(=O)N(C)C)CC3)c(C)c(-c3c(C)noc3C)n2)c1` (stereo not drawn) [Example 244-1a], the IC50 was less than 5 µM.
In turn, `CNCC(O)COc1cccc(-c2nc(NC3CCN(C(=O)OC)C3)c(C)c(-c3c(C)noc3C)n2)c1` (stereo not drawn) [Example 186-1a] showed an IC50 of less than 5 µM.
Next, `CNCC(O)COc1cccc(-c2nc(-c3c(C)noc3C)c(C)c(N3Cc4cccnc4C3)n2)c1` (stereo not drawn) [Example 35-3]: less than 5 µM; `CNC[C@@H](O)COc1ccc(Cl)c(-c2nc(-c3c(C)noc3C)c(C)c(N3CC(F)C3)n2)c1` [Example 206-3]: less than 5 µM.

A word on the IC50: it is the midpoint of a concentration-inhibition curve.

For the origin of these results see US10633389B2, “CARM1 inhibitors and uses thereof” (Epizyme, Inc., priority 2013, dated 2020).
